In patent publication US11912693B2, “Compounds for modulating S1P1 activity and methods of using the same” (TREVENA, INC., priority 2017, dated 2024):

Tests used:
[1] = biological target: T1, human sphingosine-1-phosphate receptor 1 (S1P1) (Homo sapiens (Human), UniProt P21453); assay: Inhibition of cAMP production (HTRF cAMP HiRange), S1P1 CHO-K1 cells; assay type: cell-based; conditions: for hS1P1 cAMP pEC50: inhibition of cAMP production, S1P1 CHO-K1 cells; for Emax: CHO-K1, efficacy (SPAN) normalized to fingolimod, read-out: hS1P1 cAMP SPAN
Description: (§1) Stable clonal Chinese hamster ovary K1 (CHO-K1) cells co-expressing EA-β-arrestin2 and the human sphingosine-1-phosphate receptor 1 (NM_001400, S1P1) with a C-terminal Prolink™ tag were purchased from DiscoverX corporation (Cat #: 93-0207C2).
(§2) Cell lines were cultured in AssayComplete™ Media 6 (DiscoverX Corporation, Cat #: 920018GF2) at 37° C. and 5% CO2 in a humidified CO2 and temperature-controlled incubator. To begin assay plating, cells were washed with dulbecco's phosphate buffered saline (CellGro, Cat #: 21-031-CV) and lifted from the culturing flask by incubation (37° C., 5 min) with CellStripper (Cellgro, Cat #: 25-056-CI). […] Plated cells were incubated overnight at 37° C. and 5% CO2 in a humidified CO2 and temperature-controlled incubator. Detecting Inhibition of cAMP Production
Agonist-promoted G-protein responses were determined by measuring changes in intracellular cAMP using the HTRF® cAMP HiRange kit (CisBio, Cat #: 62AM6PEJ) based on time-resolved fluorescence resonance energy transfer (TR-FRET) technology. […] Following a 30-minute incubation at 37° C. and 5% CO2 in a humidified CO2 and temperature-controlled incubator, the components of the cAMP HiRange kit were added as per the manufacturer's instructions. After an hour incubation at room temperature, plates were analyzed by a BMG PheraStar microplate reader.
(§3) The tables below include the efficacy of the compound as compared to a positive control, referred to as “SPAN”. These values are normalized to fingolimod, a known agonist of the sphingosine-1-phosphate 1 receptor. The tables also include potency values (pEC50) for modulating discrete receptor-mediated activities (inhibition of cAMP production and […] recruitment).
Target sequence in this assay (P21453 whole entry, looked up): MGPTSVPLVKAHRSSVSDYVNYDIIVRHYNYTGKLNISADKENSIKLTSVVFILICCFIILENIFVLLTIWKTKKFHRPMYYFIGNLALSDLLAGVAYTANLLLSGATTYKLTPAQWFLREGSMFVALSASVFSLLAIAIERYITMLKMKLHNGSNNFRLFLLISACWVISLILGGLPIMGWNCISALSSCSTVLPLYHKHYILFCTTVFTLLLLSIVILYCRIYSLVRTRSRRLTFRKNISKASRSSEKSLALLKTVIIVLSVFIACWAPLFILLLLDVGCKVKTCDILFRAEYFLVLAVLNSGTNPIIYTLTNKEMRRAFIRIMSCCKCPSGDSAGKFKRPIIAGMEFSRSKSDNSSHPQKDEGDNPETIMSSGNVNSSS

[2] = biological target: T1, human sphingosine-1-phosphate receptor 1 (S1P1); assay: β-Arrestin2 recruitment assay (PathHunter), S1P1 CHO-K1 cells; assay type: cell-based; conditions: for hS1P1 B-arrestin2 pEC50: β-arrestin2 recruitment, S1P1 CHO-K1 cells; for Emax: CHO-K1, efficacy (SPAN) normalized to fingolimod, read-out: hS1P1 B-arrestin2 SPAN
Description: as §1, §2
Target sequence in this assay (P21453 whole entry, looked up): as above
Target sequence in this assay (P32121 whole entry partner, looked up): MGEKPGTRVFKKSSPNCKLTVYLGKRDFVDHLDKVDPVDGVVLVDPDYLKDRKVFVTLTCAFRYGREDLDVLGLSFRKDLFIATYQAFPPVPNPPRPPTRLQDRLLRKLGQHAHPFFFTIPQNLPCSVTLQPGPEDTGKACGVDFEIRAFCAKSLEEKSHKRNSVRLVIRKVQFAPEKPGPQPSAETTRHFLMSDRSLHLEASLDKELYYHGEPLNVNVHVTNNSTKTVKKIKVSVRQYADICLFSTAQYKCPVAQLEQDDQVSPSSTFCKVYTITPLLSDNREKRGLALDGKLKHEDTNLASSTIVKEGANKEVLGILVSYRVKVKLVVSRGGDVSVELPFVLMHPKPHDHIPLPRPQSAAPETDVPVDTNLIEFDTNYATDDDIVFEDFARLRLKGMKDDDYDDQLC
Agonist-promoted β-arrestin2 recruitment to the sphingosine-1-phosphate 1 receptor was determined using the β-arrestin PathHunter®) Detection kit (DiscoverX Corporation, Cat #: 93-0001). […] In cells that stably express these fusion proteins, stimulation with a cognate agonist results in the interaction of […] and the Prolink™-tagged GPCR. This allows the complementation of the two β-galactosidase fragments and results in the formation of a functional enzyme with β-galactosidase activity. […] Following a 60 minute incubation at 37° C. and 5% CO2 in a humidified CO2 and temperature-controlled incubator, the components of the β-arrestin PathHunter® Detection kit were added as per the manufacturer's instructions. After an hour incubation at room temperature, plates were analyzed by a BMG PheraStar microplate reader.
as §3

COc1cccc(-c2nc(-c3ccc4c(ccn4C(C)C)c3)ns2)c1 [Compound 366, 5-[5-(3-methoxyphenyl)-1,2,4-thiadiazol-3-yl]-1-(propan-2-yl)-1H-indole]
hS1P1 cAMP pEC50 [1]: <6.5 | hS1P1 B-arrestin2 pEC50 [2]: <5

CC(C)n1ccc2cc(-c3noc(-c4ccncc4)n3)ccc21 [Compound 395, 3-(1-isopropyl-1H-indol-5-yl)-5-(pyridin-4-yl)-1,2,4-oxadiazole]
hS1P1 cAMP pEC50 [1]: >6.5 | hS1P1 B-arrestin2 pEC50 [2]: >5

COc1ccccc1-c1csc(-c2ccc3c(ccn3C(C)C)n2)n1 [Compound 411, 2-(1-isopropyl-1H-pyrrolo[3,2-b]pyridin-5-yl)-4-(2-methoxyphenyl)thiazole]
hS1P1 cAMP pEC50 [1]: <6.5 | hS1P1 B-arrestin2 pEC50 [2]: <5

CCCn1nnc2cc(-c3nc(-c4ccc(C(F)(F)F)c(F)c4)no3)ccc21 [Compound 193, 5-{3-[3-fluoro-4-(trifluoromethyl)phenyl]-1,2,4-oxadiazol-5-yl}-1-propyl-1H-1,2,3-benzotriazole]
hS1P1 cAMP pEC50 [1]: <6.5 | hS1P1 B-arrestin2 pEC50 [2]: <5

N#Cc1cc(-c2nnc(-c3ccc4[nH]c(=O)oc4c3)o2)ccc1NCC(F)F [Compound 488, 2-[(2,2-difluoroethyl)amino]-5-[5-(2-oxo-2,3-dihydro-1,3-benzoxazol-6-yl)-1,3,4-oxadiazol-2-yl]benzonitrile]
hS1P1 cAMP pEC50 [1]: >6.5 | hS1P1 B-arrestin2 pEC50 [2]: >5

COc1cccc(F)c1-c1noc(-c2ccc3c(ccn3C(C)C)c2)n1 [Compound 328, 3-(2-fluoro-6-methoxy-phenyl)-5-(1-isopropylindol-5-yl)-1,2,4-oxadiazole]
hS1P1 cAMP pEC50 [1]: <6.5 | hS1P1 B-arrestin2 pEC50 [2]: >5

Cc1ccccc1-c1csc(-c2ccc3c(ccn3C(C)C)n2)n1 [Compound 409, 2-(1-isopropylpyrrolo[3,2-b]pyridin-5-yl)-4-(o-tolyl)thiazole]
hS1P1 cAMP pEC50 [1]: <6.5 | hS1P1 B-arrestin2 pEC50 [2]: <5

CCCn1nnc2cc(-c3nc(-c4ccc(F)cc4)no3)ccc21 [Compound 5, 5-[3-(4-fluorophenyl)-1,2,4-oxadiazol-5-yl]-1-propyl-1H-1,2,3-benzotriazole]
hS1P1 cAMP pEC50 [1]: <6.5 | hS1P1 B-arrestin2 pEC50 [2]: <5

CCC1(CC)CC(=O)c2cc(-c3nc(-c4ccncc4C)no3)ccc2O1 [Compound 31, 2,2-diethyl-6-(3-(3-methylpyridin-4-yl)-1,2,4-oxadiazol-5-yl)chroman-4-one]
Emax [1]: > 75% | hS1P1 cAMP pEC50 [1]: >6.5 | Emax [2]: > 75% | hS1P1 B-arrestin2 pEC50 [2]: >5

Cc1ccsc1-c1nc(-c2ccc3c(c2)nnn3CC(C)(C)CO)no1 [Compound 524, 2,2-dimethyl-3-(5-(5-(3-methylthiophen-2-yl)-1,2,4-oxadiazol-3-yl)-1H-benzo[d][1,2,3]triazol-1-yl)propan-1-ol]
hS1P1 cAMP pEC50 [1]: >6.5 | hS1P1 B-arrestin2 pEC50 [2]: >5

CCC1(CC)CC(=O)c2cc(-c3nc(-c4cccc(Cl)c4)no3)ccc2O1 [Compound 261, 6-[3-(3-chlorophenyl)-1,2,4-oxadiazol-5-yl]-2,2-diethyl-chroman-4-one]
hS1P1 cAMP pEC50 [1]: <6.5 | hS1P1 B-arrestin2 pEC50 [2]: >5

COc1ccc(-c2noc(-c3ccc4c(c3)nnn4C3CCCCC3)n2)cc1C(F)(F)F [Compound 284, 1-cyclohexyl-5-{3-[4-methoxy-3-(trifluoromethyl)phenyl]-1,2,4-oxadiazol-5-yl}-1H-1,2,3-benzotriazole]
Emax [1]: < 75% | hS1P1 cAMP pEC50 [1]: <6.5 | Emax [2]: < 75% | hS1P1 B-arrestin2 pEC50 [2]: <5

CC(C)n1ccc2nc(-c3nc(-c4ccccc4Br)cs3)ccc21 [Compound 412, 4-(2-bromophenyl)-2-(1-isopropyl-1H-pyrrolo[3,2-b]pyridin-5-yl)thiazole]
hS1P1 cAMP pEC50 [1]: <6.5 | hS1P1 B-arrestin2 pEC50 [2]: <5

Cc1ccccc1-c1noc(-c2ccc3c(c2)CCC(=O)N3)n1 [Compound 365, 6-[3-(2-methylphenyl)-1,2,4-oxadiazol-5-yl]-1,2,3,4-tetrahydroquinolin-2-one]
hS1P1 cAMP pEC50 [1]: <6.5 | hS1P1 B-arrestin2 pEC50 [2]: >5

CC1(C)Oc2ccc(-c3nc(-c4cccnc4)no3)cc2C1=O [Compound 481, 2,2-dimethyl-5-[3-(pyridin-3-yl)-1,2,4-oxadiazol-5-yl]-2,3-dihydro-1-benzofuran-3-one]
hS1P1 cAMP pEC50 [1]: <6.5 | hS1P1 B-arrestin2 pEC50 [2]: >5

CC(C)n1nnc2cc(-c3ncc(-c4cccc(F)c4)s3)ccc21 [Compound 110, 5-(3-fluorophenyl)-2-(1-isopropyl-1H-benzo[d][1,2,3]triazol-5-yl)thiazole]
Emax [1]: < 75% | hS1P1 cAMP pEC50 [1]: <6.5 | Emax [2]: < 75% | hS1P1 B-arrestin2 pEC50 [2]: <5

CC(C)(CO)Cn1nnc2cc(-c3noc(-c4ccncc4C(F)(F)F)n3)ccc21 [Compound 528, 2,2-dimethyl-3-(5-(5-(3-(trifluoromethyl)pyridin-4-yl)-1,2,4-oxadiazol-3-yl)-1H-benzo[d][1,2,3]triazol-1-yl)propan-1-ol]
hS1P1 cAMP pEC50 [1]: <6.5 | hS1P1 B-arrestin2 pEC50 [2]: <5

OCCn1nnc2cc(-c3noc(-c4ccccc4Br)n3)ccc21 [Compound 238, 2-(5-(5-(2-bromophenyl)-1,2,4-oxadiazol-3-yl)-1H-benzo[d][1,2,3]triazol-1-yl)ethanol]
Emax [1]: < 75% | hS1P1 cAMP pEC50 [1]: <6.5 | Emax [2]: < 75% | hS1P1 B-arrestin2 pEC50 [2]: <5

CC(C)n1nnc2cc(-c3nnc(-c4ccccc4O)s3)ccc21 [Compound 70, 2-{5-[1-(propan-2-yl)-1H-1,2,3-benzotriazol-5-yl]-1,3,4-thiadiazol-2-yl}phenol]
Emax [1]: < 75% | hS1P1 cAMP pEC50 [1]: >6.5 | Emax [2]: < 75% | hS1P1 B-arrestin2 pEC50 [2]: >5

COc1ccc(-c2noc(-c3ccc4c(c3)nnn4C(C)C)n2)c2ccccc12 [Compound 129, 5-[3-(4-methoxynaphthalen-1-yl)-1,2,4-oxadiazol-5-yl]-1-(propan-2-yl)-1H-1,2,3-benzotriazole]
Emax [1]: < 75% | hS1P1 cAMP pEC50 [1]: <6.5 | Emax [2]: < 75% | hS1P1 B-arrestin2 pEC50 [2]: <5

Cc1ccsc1-c1noc(-c2ccc3c(c2)nnn3CC(C)(C)O)n1 [Compound 140, 2-methyl-1-{5-[3-(3-methylthiophen-2-yl)-1,2,4-oxadiazol-5-yl]-1H-1,2,3-benzotriazol-1-yl}propan-2-ol]
Emax [1]: > 75% | hS1P1 cAMP pEC50 [1]: >6.5 | Emax [2]: > 75% | hS1P1 B-arrestin2 pEC50 [2]: >5

CC(C)Nc1ccc(-c2nc(-c3ccc4sc(N)nc4c3)no2)cc1C#N [Compound 441, 5-(3-(2-aminobenzo[d]thiazol-5-yl)-1,2,4-oxadiazol-5-yl)-2-(isopropylamino)benzonitrile]
Emax [1]: > 75% | hS1P1 cAMP pEC50 [1]: >6.5 | Emax [2]: > 75% | hS1P1 B-arrestin2 pEC50 [2]: >5

CCC1(CC)CC(=O)c2cc(-c3nc(-c4cccnn4)no3)ccc2O1 [Compound 621, 2,2-diethyl-6-(3-(pyridazin-3-yl)-1,2,4-oxadiazol-5-yl)chroman-4-one]
hS1P1 cAMP pEC50 [1]: <6.5 | hS1P1 B-arrestin2 pEC50 [2]: <5

CCC1(CC)CC(=O)c2cc(-c3nc(-c4ccnc(C)c4)no3)ccc2O1 [Compound 315, 2,2-diethyl-6-(3-(2-methylpyridin-4-yl)-1,2,4-oxadiazol-5-yl)chroman-4-one]
Emax [1]: > 75% | hS1P1 cAMP pEC50 [1]: >6.5 | Emax [2]: < 75% | hS1P1 B-arrestin2 pEC50 [2]: >5

Cc1ccccc1Cc1noc(-c2ccc3c(c2)nnn3C(C)C)n1 [Compound 202, 5-{3-[(2-methylphenyl)methyl]-1,2,4-oxadiazol-5-yl}-1-(propan-2-yl)-1H-1,2,3-benzotriazole]
Emax [1]: < 75% | hS1P1 cAMP pEC50 [1]: <6.5 | Emax [2]: < 75% | hS1P1 B-arrestin2 pEC50 [2]: <5

Cc1ccccc1-c1coc(-c2ccc3c(c2)nnn3C(C)C)n1 [Compound 433, 5-[4-(2-methylphenyl)-1,3-oxazol-2-yl]-1-(propan-2-yl)-1H-1,2,3-benzotriazole]
Emax [1]: > 75% | hS1P1 cAMP pEC50 [1]: >6.5 | Emax [2]: > 75% | hS1P1 B-arrestin2 pEC50 [2]: >5

CC(C)n1nnc2cc(-c3nc(-c4ccc5nc[nH]c5c4)no3)ccc21 [Compound 511, 5-[3-(1H-1,3-benzodiazol-6-yl)-1,2,4-oxadiazol-5-yl]-1-(propan-2-yl)-1H-1,2,3-benzotriazole]
Emax [1]: < 75% | hS1P1 cAMP pEC50 [1]: >6.5 | Emax [2]: > 75% | hS1P1 B-arrestin2 pEC50 [2]: >5
